Laboratory results reported in patent US4241056A, “Penicillins and salts thereof” (Boehringer Ingelheim GmbH, priority 1978, dated 1980).
≈ marks a conversion by molar mass, not a printed value.

Key:
[1] = test system: Staphylococcus aureus SG 511; assay: MIC, serial dilution test in the microtiter system; format: cell-based; details: SG511, 18 h, Staph. Aureus SG 511, 37° C., 18-20 hours
Procedure: (§1) The tests were performed according to the method of the serial dilution test in the microtiter system. The effect of the substances on bacteriostasis was examined in a fluid medium. The activity on bacteriostatis was examined at the following concentrations:
(§2) 10 gm of peptone, 8 gm of meat extract-oxoid, 3 gm of sodium chloride, 2 gm of sec. sodium phosphate were diluted with distilled water to 1000 ml (pH 7.2-7.4). Only in the test against streptococci 1% of glucose was added. The age of the primary cultures was about 20 hours. The standardizations of the pathogen suspension was effected by using a photometer according to "Eppendorf" (test tube diameter 14 mm, filter 546 nm) with the aid of the turbidity of a comparison suspension consisting of barium sulfate, this suspension being prepared by addition of 3.0 ml of 1% barium chloride solution to 97 ml of 1% sulfuric acid. After the standardization, streptococcus aronson were further diluted to a concentration of 1:15 and the other germs to a concentration of 1:1500 by menas of a sodium chloride solution.
(§3) 16 mg of the test substance were put into a 10 ml measuring flask and filled up to the mark with the solvent. The further dilution series was standardized with distilled water or the respective solvent.
(§4) The cavities of the microtiter plates were filled with 0.2 ml of nutrient medium. Then, 0.01 ml of the corresponding test substance dilution was added and inoculated with 0.01 ml of the standardized suspension. The bacteria were incubated at 37° C. for 18-20 hours. Control tests merely using the solvent were carried out simultaneously.
(§5) The measurement was carried out macroscopically to determine the minimal inhibitory (threshold) concentration, i.e. the lowest still bacteriostatically effective concentration.
(§6) Staphylococcus aureus SG 511, streptococcus aronson, streptococcus faecalis ATCC 10541, escherichia coli ATCC 9637, 11 775 and escherichia coli 12593/74 (β-lactamase carrier), pseudomonas aeruginosa hamburgensis and ATCC 10145, serratia marcescens ATCC 13 880, klebsiella pneumoniae ATCC 10 031 and 272 and proteus mirabilis hamburgensis.

[2] = test system: escherichia coli 12593/74 (β-lactamase carrier); assay: MIC, serial dilution test in the microtiter system; format: cell-based; details: 18 h, E. coli 12593/74 (β-lactamase carrier), 37° C., 18-20 hours
Procedure: as §1, §2, §3, §4, §5, §6

[3] = test system: escherichia coli ATCC 11775; assay: MIC, serial dilution test in the microtiter system; format: cell-based; details: ATCC11775, 18 h, E. coli ATCC 11775, 37° C., 18-20 hours
Procedure: as §1, §2, §3, §4, §5, §6

[4] = test system: escherichia coli ATCC 9637; assay: MIC, serial dilution test in the microtiter system; format: cell-based; details: ATCC9637, 18 h, E. coli ATCC 9637, 37° C., 18-20 hours
Procedure: as §1, §2, §3, §4, §5, §6

[5] = test system: klebsiella pneumoniae 272; assay: MIC, serial dilution test in the microtiter system; format: cell-based; details: 18 h, klebs pneum. 272, 37° C., 18-20 hours
Procedure: as §1, §2, §3, §4, §5, §6

[6] = test system: klebsiella pneumoniae ATCC 10 031; assay: MIC, serial dilution test in the microtiter system; format: cell-based; details: 18 h, klebs pneum ATCC 10031, 37° C., 18-20 hours
Procedure: as §1, §2, §3, §4, §5, §6

[7] = test system: proteus mirabilis hamburgensis; assay: MIC, serial dilution test in the microtiter system; format: cell-based; details: 18 h, prot. mirabilis, 37° C., 18-20 hours
Procedure: as §1, §2, §3, §4, §5, §6

[8] = test system: pseudomonas aeruginosa ATCC 10145; assay: MIC, serial dilution test in the microtiter system; format: cell-based; details: ATCC10145, 18 h, pseud. aerug. ATCC 10145, 37° C., 18-20 hours
Procedure: as §1, §2, §3, §4, §5, §6

[9] = test system: pseudomonas aeruginosa hamburgensis; assay: MIC, serial dilution test in the microtiter system; format: cell-based; details: 18 h, pseud. aerug. hamb., 37° C., 18-20 hours
Procedure: as §1, §2, §3, §4, §5, §6

[10] = test system: serratia marcescens ATCC 13 880; assay: MIC, serial dilution test in the microtiter system; format: cell-based; details: ATCC13, 18 h, serrat marcesc., 37° C., 18-20 hours
Procedure: as §1, §2, §3, §4, §5, §6

streptococcus aronson = assay: MIC, serial dilution test in the microtiter system; format: cell-based; details: 18 h, strept. aronson, 1% glucose added, 37° C., 18-20 hours
Procedure: as §1, §2, §3, §4, §5, §6

[11] = test system: streptococcus faecalis ATCC 10541; assay: MIC, serial dilution test in the microtiter system; format: cell-based; details: Enterococcus faecalis, ATCC10541, 18 h; strept. faecal.; 37° C., 18-20 hours
Procedure: as §1, §2, §3, §4, §5, §6

[12] = Serum (blood) level in rats; format: in vivo; details: rat, average from 3 rats; for concentration at 0.5 h: 30 min.; for concentration at 1 h: 60 min.; for concentration at 2 h: 120 min.
Procedure: For the determination of the serum level in rats, typical representatives of the penicillins according to the invention were administered at a dosage of 10 mg/kg subcutaneously or 100 mg/kg per os to groups of 3 female FW 49 rats (weight 100 to 130 gm) each. Blood tests taken from the heart were worked up, and the obtained sera were tested by the cylinder test-agar diffusion method on plates with sarcina lutea ATCC 15957. The samples were compared with standard curves.

E. coli ATCC 11775 = assay: In vivo activity against experimental infection in mice; parameters: species or system mouse (NMRI); details: Escherichia coli, ATCC11775, sc, 168 h, subcutaneous, 7 days observation, read-out: ED50 (dose at which 50% of the animals survived)
Procedure: A number of compounds of this invention were tested in vivo in mice against experimental infections. Bacteria E. coli ATCC 11775 and pseudomonas aeruginosa walter were used as pathogens. An intraperitoneal infection with 0.2 ml of a 5% mucin suspension of the bacteria was induced. This corresponds to about 2×10^6 germs E. coli and 8×10^5 germs pseudomonas/mouse. Female NMRI mice were divided into groups of 10 animals each, two control groups remained untreated, the remaining groups were treated with different doses of the respective penicillins for the determination of the ED50 (dose at which 50% of the animals survived). The groups with the E. coli infection were treated with the substance 3 times on the first day (1, 4 and 7 hours post-infectionem) and for 2 days thereafter twice a day. The groups with the pseudomonas infection were treated with the substance applied 6 times on the first day (1, 3, 6, 9, 12, and 15 hours post-infectionem) and for 2 days thereafter twice a day. The observation time was in both cases 7 days.

| Compound | MIC [1] [µg/mL] | MIC [2] [µg/mL] | MIC [3] [µg/mL] | MIC [4] [µg/mL] | MIC [5] [µg/mL] | MIC [6] [µg/mL] | MIC [7] [µg/mL] | MIC [8] [µg/mL] | MIC [9] [µg/mL] | MIC [10] [µg/mL] | MIC (streptococcus aronson) [µg/mL] | MIC [11] [µg/mL] | concentration at 0.5 h ([12]; oral 100 mg/kg) [ng/mL] | concentration at 1 h ([12]; oral 100 mg/kg) [ng/mL] | concentration at 2 h ([12]; oral 100 mg/kg) [ng/mL] | concentration at 0.5 h ([12]; sc, subcutaneous 10 mg/kg) [ng/mL] | concentration at 1 h ([12]; sc, subcutaneous 10 mg/kg) [ng/mL] | concentration at 2 h ([12]; sc, subcutaneous 10 mg/kg) [ng/mL] | ED50 (E. coli ATCC 11775) [mg/kg] |
| --- | --- | --- | --- | --- | --- | --- | --- | --- | --- | --- | --- | --- | --- | --- | --- | --- | --- | --- | --- |
| CC(=O)Nc1ncc(NC(=O)N[C@@H](C(=O)N[C@@H]2C(=O)N3[C@@H]2SC(C)(C)[C@@H]3C(=O)O)c2ccc(O)cc2)c(O)n1 [Compound E, D-α-[3-(acetylamino-4-hydroxy-pyrimidyl)-ureido]-p-hydroxybenzyl-penicillin sodium] | 1.25 | > 80 | 2.5 | 5 | 80 | 80 | 1.25 | 2.5 | 2.5 | 10 | 0.3 | 10 | 13800 | 13900 | 13700 | 4100 | 5800 | 7700 | 15 |
| CC1(C)S[C@@H]2[C@H](NC(=O)[C@H](NC(=O)Nc3cnc(NC4CCCCC4)nc3O)c3ccc(O)cc3)C(=O)N2[C@H]1C(=O)O [L, D-α-[3-(2-cyclohexylamino-4-hydroxy-5-pyrimidyl)-ureido]-p-hydroxybenzyl-penicillin sodium] | 0.3 | > 80 | 1.25 | 0.6 | 10 | 20 | 0.6 | 2.5 | 2.5 | 1.25 | 0.08 | 5 | – | – | – | – | – | – | – |
| CN(C)C(=O)Nc1ncc(NC(=O)N[C@@H](C(=O)N[C@@H]2C(=O)N3[C@@H]2SC(C)(C)[C@@H]3C(=O)O)c2ccc(O)cc2)c(O)n1 [M] | 1.25 (≈ 2.12 µM) | > 80 | 2.5 (≈ 4.25 µM) | 10 (≈ 17 µM) | > 80 | > 80 | 2.5 (≈ 4.25 µM) | 5 (≈ 8.49 µM) | 5 (≈ 8.49 µM) | 10 (≈ 17 µM) | 0.3 (≈ 0.51 µM) | 80 (≈ 136 µM) | – | – | – | – | – | – | – |
| Cc1ncc(NC(=O)N[C@@H](C(=O)N[C@@H]2C(=O)N3[C@@H]2SC(C)(C)[C@@H]3C(=O)O)c2ccc(O)cc2)c(O)n1 [B, D-α-[3-(4-hydroxy-2-methyl-5-pyrimidyl)-ureido]-p-hydroxybenzyl-penicillin sodium] | 1.25 | 80 | 1.25 | 2.5 | 80 | 80 | 0.6 | 2.5 | 5 | 5 | 0.3 | 10 | – | 18800 | 1900 | – | 7300 | 1100 | 5 |
| CC1(C)S[C@@H]2[C@H](NC(=O)[C@H](NC(=O)Nc3cnc(N4CCOCC4)nc3O)c3ccc(O)cc3)C(=O)N2[C@H]1C(=O)O [K, D-α-[3-(4-hydroxy-2-morpholiono-5-pyrimidyl)-ureido]-p-hydroxybenzyl-penicillin sodium] | 1.25 | > 80 | 2.5 | 2.5 | 80 | > 80 | 1.25 | 1.25 | 2.5 | 5 | 0.3 | 10 | – | – | – | – | – | – | – |
| CC1(C)S[C@@H]2[C@H](NC(=O)[C@H](NC(=O)Nc3cnc(Nc4ccc(Cl)c(Cl)c4)nc3O)c3ccc(O)cc3)C(=O)N2[C@H]1C(=O)O [J, D-α-[3-(2-m,p-dichloroanilino-4-hydroxy-5-pyrimidyl)-ureido]-p-hydroxybenzyl-penicillin sodium] | – | 10 | 0.6 | 1.25 | 2.5 | 2.5 | 0.6 | 2.5 | 2.5 | 0.6 | 0.02 | 2.5 | – | – | – | – | – | – | – |
| CNc1ncc(NC(=O)N[C@@H](C(=O)N[C@@H]2C(=O)N3[C@@H]2SC(C)(C)[C@@H]3C(=O)O)c2ccc(O)cc2)c(O)n1 [N, D-α-[3-(4-hydroxy-2-methylamino-5-pyrimidyl)-ureido]-p-hydroxybenzyl-penicillin sodium] | 0.3 | > 80 | 2.5 | 2.5 | 40 | 80 | 0.3 | 2.5 | 2.5 | 5 | 0.08 | 10 | – | – | – | – | – | – | – |

Second part, led by results:

| MIC [1] [µg/mL] | MIC [2] [µg/mL] | MIC [3] [µg/mL] | MIC [4] [µg/mL] | MIC [5] [µg/mL] | MIC [6] [µg/mL] | MIC [7] [µg/mL] | MIC [8] [µg/mL] | MIC [9] [µg/mL] | MIC [10] [µg/mL] | MIC (streptococcus aronson) [µg/mL] | MIC [11] [µg/mL] | Compound | concentration at 0.5 h ([12]; oral 100 mg/kg) [ng/mL] | concentration at 1 h ([12]; oral 100 mg/kg) [ng/mL] | concentration at 2 h ([12]; oral 100 mg/kg) [ng/mL] | concentration at 0.5 h ([12]; sc, subcutaneous 10 mg/kg) [ng/mL] | concentration at 1 h ([12]; sc, subcutaneous 10 mg/kg) [ng/mL] | concentration at 2 h ([12]; sc, subcutaneous 10 mg/kg) [ng/mL] | ED50 (E. coli ATCC 11775) [mg/kg] |
| --- | --- | --- | --- | --- | --- | --- | --- | --- | --- | --- | --- | --- | --- | --- | --- | --- | --- | --- | --- |
| – | – | 5 (≈ 9.27 µM) | 10 (≈ 18.5 µM) | – | – | – | 20 (≈ 37.1 µM) | 40 (≈ 74.1 µM) | – | – | – | CC1(C)S[C@@H]2[C@H](NC(=O)[C@H](NC(=O)N3CCN(S(C)(=O)=O)C3=O)c3ccccc3)C(=O)N2[C@H]1C(=O)O [R, reference compound] | – | – | – | – | – | – | – |
| 0.3 | 80 | 0.65 | 0.3 | 10 | 20 | 0.3 | 5 | 10 | 1.25 | 0.02 | 10 | CC1(C)S[C@@H]2[C@H](NC(=O)[C@H](NC(=O)Nc3cnc(NCc4ccc(Cl)cc4)nc3O)c3ccc(O)cc3)C(=O)N2[C@H]1C(=O)O [O, D-α-[3-(2-p-chlorobenzylamino-4-hydroxy-5-pyrimidyl)-ureido]-p-hydroxybenzyl-penicillin sodium] | – | – | – | – | – | – | – |
| – | – | 2.5 | 10 | – | – | – | 20 | 20 | – | – | – | CC1(C)S[C@@H]2[C@H](NC(=O)[C@H](NC(=O)Nc3cnccc3O)c3ccccc3)C(=O)N2[C@H]1C(=O)O [S, D-α-[(4-hydroxy-3-pyridyl)-ureido]benzylpenicillin sodium, reference compound] | – | – | – | – | – | – | – |
| 0.3 | 80 | 1.25 | 1.25 | 10 | 10 | 0.08 | 1.25 | 2.5 | 1.25 | 0.08 | 5 | CCCNc1ncc(NC(=O)N[C@@H](C(=O)N[C@@H]2C(=O)N3[C@@H]2SC(C)(C)[C@@H]3C(=O)O)c2ccc(O)cc2)c(O)n1 [P, D-α-[3-(4-hydroxy-2-propylamino-5-pyrimidyl)-ureido]-p-hydroxybenzyl-penicillin sodium] | – | – | – | – | – | – | – |
